Reference: patent US9758401B2, “Digestion of biosolids in wastewater” (BCR ENVIRONMENTAL CORPORATION, priority 2009, dated 2017)

Assays:
[1] = system: Waste activated sludge (WAS); test: Waste activated sludge solubilization by chlorine dioxide in digesters (soluble COD, NH4, PO4, volatile solids)
Method: Waste activated sludge (WAS) was obtained from a local municipal WWTP which removes cBOD only and uses a pure oxygen system. In order to achieve similar experiment conditions and be consistent with the previous pilot experiment, the solids concentration was adjusted to approximately 7 g/L. Three digesters were set up and treated with chlorine dioxide dosages of 100, 150 and 200 mg/L respectively. The digesters were operated for 24 hours. Samples were taken at time intervals of 10 min, 1 h, 6 h, 12 h and 24 h to represent different contact time.
This confirmed that chlorine dioxide contact time is the key factor for WAS solubilization. The increased soluble COD concentration can be expressed as 10-11% of TCOD which is quite significant. It was also observed that soluble COD concentration at contacting time of 6 hr was approximately 55-66% of the soluble COD at time 24 hrs. […] The increase of soluble COD corresponded to the volatile solids destruction of 4-6% with different chlorine dioxide treatment dosage.
This is considered insignificant. The PO4 increase was much higher and equaled 16 to 28.3 mg P/L after 24 h. Higher phosphorus than nitrogen release can be attributed to the chlorine dioxide treatment which breaks down the cell walls resulting in the release of unbound orthophosphate PO4—P. The nitrogen in the cells is in the form of organic nitrogen (amino acids) and enzymes are required to convert organic nitrogen to ammonia nitrogen. The low pH resulting from the chlorine dioxide treatment may have deactivated the enzyme activity, therefore no/insignificant NH4—N increase was detected.

[2] = system: fecal coliform; test: Secondary sludge full-scale test: fecal coliform reduction by chlorine dioxide; assay type: cell-based; details: for Fecal coliform: secondary sludge, 10 minutes contact time
Method: Treatment of non-digested wastewater sludge with chlorine dioxide allows the material to meet Class B pathogen reduction requirements prior to digestion by reducing the fecal coliform concentrations to levels much lower than the Class B standard (<2,000,000 fecal coliform bacteria) with less than 15 minutes contact time. The resulting biosolids cake has no odor.
In this test, chlorine dioxide was generated on-site, and was injected (at varying concentrations) into a 100 gpm sludge flow passing through a 4 inch diameter pipe. The pipe length was sufficient to allow 10 minutes of contact time between the sludge and the chlorine dioxide prior to dewatering the material.

[3] = system: anaerobic digester; test: Methane production in anaerobic digestion of chlorine dioxide pretreated WAS; details: versus non-pretreated WAS, measured
Method: Treatment of non-digested wastewater sludge with chlorine dioxide to solubilized the sludge and make nutrients bio-available and then feeding this material into an established anaerobic digester once the chlorine dioxide residual has been reduced improves gas (methane) production in an anaerobic digester. A generally accepted estimate for methane production at 35° C. is 0.25 kg methane per kg COD consumed. One kmol of methane is equivalent with a mass of 16 kg. Per definition, the COD equivalent of 1 kmol of methane is the mass of the amount of oxygen required for complete oxidation according to the formula: CH4+2O2→CO2+2H2O The mass of the 2O2 is 2 kmol of oxygen or 64 kg. Thus 64 kg Oxygen Demand is equivalent with 16 kg of methane, or 1 kg of oxygen demand (COD) is equivalent with 16/64=0.25 kg methane.
This increase in soluble COD represents 10-11% of the total COD concentration of the sludge, and represents a 2000% increase in soluble COD. The inventors believe that the higher the s-COD the higher capacity for methane production. The resulting increase in methane production as a result of this enhancement of anaerobic digestion has been measured as a greater than 50% increase utilizing this method, and is expected to be in the range of 100% or more over non-pretreated WAS. […]

[4] = chlorine dioxide 100-200 mg/L, 24 h

[O][Cl+][O-] [chlorine dioxide]
soluble COD at contact time 6 hr as share of soluble COD at 24 hrs ([1]; chlorine dioxide 100-200 mg/L): 55-66%
increase in soluble COD [1, 4]: 2000%
increase in soluble COD as share of total COD (TCOD) [1, 4]: 10-11%
volatile solids destruction ([1]; different chlorine dioxide treatment dosage (100-200 mg/L)): 4-6%
fecal coliform concentrations after treatment (Class B standard) ([2]; non-digested wastewater sludge, less than 15 minutes contact time): < 2,000,000 fecal coliform bacteria
Fecal coliform ([2]; ClO2 dose rate 64 mg/L): 1,800 MPN/g
Fecal coliform ([2]; ClO2 dose rate 80 mg/L): BDL
Fecal coliform ([2]; ClO2 dose rate 96 mg/L): BDL
Fecal coliform ([2]; ClO2 dose rate 128 mg/L): BDL
Fecal coliform ([2]; ClO2 dose rate 160 mg/L): BDL*
increase in methane production [3]: greater than 50%
